Assay results taken from patent US4649198A, “Imidazo(1,5-a)pyrimidine derivatives and their use as antimycotic agents” (Kyorin Pharmaceutical Co., Ltd., priority 1983, dated 1987).
Values after ≈ are worked out from the molar mass of the structure shown.

Tests used:
Assay in all cases: antifungal activity, standard agar dilution streak method
Assay type in all cases: cell-based
Microsporum canis 20010 = settings: read-out: Minimum Inhibitory Concentration
Experimental: (§1) The antifungal activity of the compound of the present invention was assayed by the standard agar dilution streak method against fungi.

[1] = test system: Candida albicans IFO-1388; settings: IFO1388, read-out: Minimum Inhibitory Concentration
Experimental: as §1

[2] = test system: Trichophyton mentagrophytes MTU-19003; settings: MTU19003, read-out: Minimum Inhibitory Concentration
Experimental: as §1

[3] = test system: Trichophyton mentagrophytes MTU-19005; settings: MTU19005, read-out: Minimum Inhibitory Concentration
Experimental: as §1

Candida albicans KYF-602 = settings: KYF602, read-out: Minimum Inhibitory Concentration
Experimental: as §1

[4] = test system: Candida stellatidea IFO-1398; settings: IFO1398, read-out: Minimum Inhibitory Concentration
Experimental: as §1

[5] = test system: Candida albicans IFO-1594; settings: IFO1594, read-out: Minimum Inhibitory Concentration
Experimental: as §1

Candida albicans 3147 = settings: read-out: Minimum Inhibitory Concentration
Experimental: as §1

[6] = test system: Candida albicans MTU-12124; settings: MTU12124, read-out: Minimum Inhibitory Concentration
Experimental: as §1

[7] = test system: Aspergillus fumigatus MTU-06002; settings: MTU06002, read-out: Minimum Inhibitory Concentration
Experimental: as §1

Row | MIC (Microsporum canis 20010) | MIC [1] | MIC [2] | MIC [3] | MIC (Candida albicans KYF-602) | MIC [4] | MIC [5] | MIC (Candida albicans 3147) | MIC [6] | MIC [7] | Structure (SMILES)
1 | 0.78 µg/mL (≈ 2.61 µM) | 1.56 µg/mL (≈ 5.23 µM) | 1.56 µg/mL (≈ 5.23 µM) | 0.78 µg/mL (≈ 2.61 µM) | 6.25 µg/mL (≈ 20.9 µM) | 0.2 µg/mL (≈ 0.67 µM) | 3.13 µg/mL (≈ 10.5 µM) | 6.25 µg/mL (≈ 20.9 µM) | 3.13 µg/mL (≈ 10.5 µM) | 6.25 µg/mL (≈ 20.9 µM) | Clc1ccc(-c2ncc3nc(Cl)cc(Cl)n23)cc1 [Ex. 1, 2,4-dichloro-6-(4-chlorophenyl)imidazo[1,5-a]pyrimidine]
2 | 1.56 µg/mL (≈ 5.34 µM) | 0.78 µg/mL (≈ 2.67 µM) | 1.56 µg/mL (≈ 5.34 µM) | 1.56 µg/mL (≈ 5.34 µM) | 12.5 µg/mL (≈ 42.8 µM) | 3.13 µg/mL (≈ 10.7 µM) | 3.13 µg/mL (≈ 10.7 µM) | 3.13 µg/mL (≈ 10.7 µM) | 3.13 µg/mL (≈ 10.7 µM) | 25 µg/mL (≈ 85.6 µM) | CC(c1ccccc1)c1ncc2nc(Cl)cc(Cl)n12 (centres unmarked) [Ex. 18]
3 | 0.78 µg/mL (≈ 2.25 µM) | 0.78 µg/mL (≈ 2.25 µM) | 1.56 µg/mL (≈ 4.5 µM) | 0.78 µg/mL (≈ 2.25 µM) | > 6.25 µg/mL | 0.2 µg/mL (≈ 0.576 µM) | 0.78 µg/mL (≈ 2.25 µM) | 0.78 µg/mL (≈ 2.25 µM) | 0.78 µg/mL (≈ 2.25 µM) | > 6.25 µg/mL | Clc1ccc(Cc2ncc3nc(Cl)cc(Cl)n23)c(Cl)c1 [Ex. 20]
4 | 0.78 µg/mL (≈ 2.27 µM) | 1.56 µg/mL (≈ 4.55 µM) | 1.56 µg/mL (≈ 4.55 µM) | 0.78 µg/mL (≈ 2.27 µM) | 6.25 µg/mL (≈ 18.2 µM) | 0.2 µg/mL (≈ 0.583 µM) | 3.13 µg/mL (≈ 9.13 µM) | 1.56 µg/mL (≈ 4.55 µM) | 3.13 µg/mL (≈ 9.13 µM) | 6.25 µg/mL (≈ 18.2 µM) | Clc1cc(Cl)n2c(-c3ccc(Br)cc3)ncc2n1 [Ex. 5]
5 | 0.39 µg/mL (≈ 1.25 µM) | 1.56 µg/mL (≈ 4.99 µM) | 1.56 µg/mL (≈ 4.99 µM) | 0.2 µg/mL (≈ 0.64 µM) | 3.13 µg/mL (≈ 10 µM) | 0.78 µg/mL (≈ 2.5 µM) | 1.56 µg/mL (≈ 4.99 µM) | 1.56 µg/mL (≈ 4.99 µM) | 6.25 µg/mL (≈ 20 µM) | 3.13 µg/mL (≈ 10 µM) | Clc1ccc(Cc2ncc3nc(Cl)cc(Cl)n23)cc1 [Ex. 16]
6 | 1.56 µg/mL (≈ 5.77 µM) | 0.2 µg/mL (≈ 0.74 µM) | 3.13 µg/mL (≈ 11.6 µM) | 1.56 µg/mL (≈ 5.77 µM) | 3.13 µg/mL (≈ 11.6 µM) | 3.13 µg/mL (≈ 11.6 µM) | 0.39 µg/mL (≈ 1.44 µM) | 1.56 µg/mL (≈ 5.77 µM) | 6.25 µg/mL (≈ 23.1 µM) | 50 µg/mL (≈ 185 µM) | Clc1cc(Cl)n2c(C3CCCCC3)ncc2n1 [Ex. 23]
7 | 1.56 µg/mL (≈ 4.68 µM) | 0.78 µg/mL (≈ 2.34 µM) | 1.56 µg/mL (≈ 4.68 µM) | 0.78 µg/mL (≈ 2.34 µM) | 6.25 µg/mL (≈ 18.8 µM) | 0.78 µg/mL (≈ 2.34 µM) | 3.13 µg/mL (≈ 9.4 µM) | 1.56 µg/mL (≈ 4.68 µM) | 1.56 µg/mL (≈ 4.68 µM) | 12.5 µg/mL (≈ 37.5 µM) | Clc1ccc(-c2ncc3nc(Cl)cc(Cl)n23)c(Cl)c1 [Ex. 9]
8 | – | 3.13 µg/mL (≈ 8.03 µM) | – | – | > 6.25 µg/mL | 1.56 µg/mL (≈ 4 µM) | 6.25 µg/mL (≈ 16 µM) | 1.56 µg/mL (≈ 4 µM) | 1.56 µg/mL (≈ 4 µM) | – | Clc1cc(Cl)n2c(-c3ccc(I)cc3)ncc2n1 [Ex. 21]
9 | 0.39 µg/mL (≈ 1.17 µM) | 1.56 µg/mL (≈ 4.68 µM) | 0.78 µg/mL (≈ 2.34 µM) | 139 µg/mL (≈ 417 µM) | 3.13 µg/mL (≈ 9.4 µM) | 0.39 µg/mL (≈ 1.17 µM) | 1.56 µg/mL (≈ 4.68 µM) | 1.56 µg/mL (≈ 4.68 µM) | 1.56 µg/mL (≈ 4.68 µM) | > 100 µg/mL | Clc1cc(Cl)n2c(-c3ccc(Cl)c(Cl)c3)ncc2n1 [Ex. 7]
